Data as given in BigSolDB 2.1.

Details: in NMP

O=C1OC(=O)[C@H]2[C@@H]1[C@@H]1C=C[C@H]2C1
Details | solubility (mole fraction)
278.15 K | 0.112
283.15 K | 0.126
288.15 K | 0.14
293.15 K | 0.156
298.15 K | 0.172
303.15 K | 0.19
308.15 K | 0.209
313.15 K | 0.225
318.15 K | 0.245
323.15 K | 0.265
